Experimental findings from ChEMBL document CHEMBL1129646, “Structure-activity relationships study of two series of leukotriene B4 antagonists: novel indolyl and naphthyl compounds substituted with a 2-[methyl(2-phenethyl)amino]-2-oxoethyl side chain” (J Med Chem, 1996) are described below.

pIC50: −log10 of the molar value.

A short description of test [1]: LTB4 receptor binding from radioligand binding assay using guinea pig spleen cell membrane.
Another test has as its target Leukotriene B4 receptor (Homo sapiens, UniProt Q9NPC1+Q15722). Description: LTB4 receptor binding from radioligand binding assay using human intact neutrophils PMN.
The target in test [2] is T1, Leukotriene B4 receptor 1 (Homo sapiens, UniProt Q15722). Description: Compound was evaluated for LTB4 receptor binding, obtained from radioligand binding assay using human intact neutrophils PMN.
T1 sequence (Q15722 whole entry): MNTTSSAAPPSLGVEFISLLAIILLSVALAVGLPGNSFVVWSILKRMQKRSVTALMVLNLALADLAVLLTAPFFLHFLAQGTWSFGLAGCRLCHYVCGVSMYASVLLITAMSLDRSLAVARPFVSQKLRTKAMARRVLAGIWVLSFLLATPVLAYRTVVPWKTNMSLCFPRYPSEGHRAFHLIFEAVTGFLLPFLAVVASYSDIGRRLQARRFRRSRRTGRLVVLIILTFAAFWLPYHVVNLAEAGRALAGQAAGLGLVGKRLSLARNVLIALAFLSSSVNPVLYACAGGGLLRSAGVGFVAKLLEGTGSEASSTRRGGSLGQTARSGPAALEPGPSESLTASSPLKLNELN
The target of test [3] is T1, Leukotriene B4 receptor 1. Description: Compound was evaluated for LTB4 receptor binding obtained from radioligand binding assay using human intact neutrophils PMN; No activity.

Consider `CN(CCc1ccccc1)C(=O)Cc1cc(/C=C/C2N=NN=N2)cc2c(OCc3ccccc3)cccc12`, for which the results for the IC50 (in test [1]; on Leukotriene B4 receptor) were 3 nM and 5 nM, respectively. With `C/C(=C\c1cn(CC(=O)N(C)CCc2ccccc2)c2cccc(OCc3ccccc3)c12)C(=O)O`, the IC50 (usually the midpoint of a concentration-inhibition curve) in test [1] worked out at 2.33 nM; at Leukotriene B4 receptor it was 24.5 nM. Turning to `CN(CCc1ccccc1)C(=O)Cn1cc(/C=C/C2N=NN=N2)c2cc(OCc3ccccc3)ccc21`, the IC50 in test [1] was determined as 4.5 nM; at Leukotriene B4 receptor, 19 nM. For `CC/C(=C\c1cn(CC(=O)N(C)CCc2ccccc2)c2ccc(OCc3ccccc3)cc12)C(=O)O` the same measures were 1.3 nM and 7.6 nM. For `CN(CCc1ccccc1)C(=O)Cc1cc(/C=C/C(=O)O)cc2c(Oc3ccccc3)cccc12`, in that order: 2 nM and 20 nM. For `CN(CCc1ccccc1)C(=O)Cc1cc(/C=C/C(=O)O)cc2c(OCc3ccccc3)cccc12`, in that order: 0.58 nM and 3.55 nM. As to `CC/C(=C\c1cc(CC(=O)N(C)CCc2ccccc2)c2cccc(OCc3ccccc3)c2c1)C(=O)O`, the IC50 in test [1] is 0.8 nM; on Leukotriene B4 receptor it was 50 nM. In the case of `CN(CCc1ccccc1)C(=O)Cn1cc(C(=O)O)c2c(OCc3ccccc3)cccc21`, the IC50 stood at 1.45 nM in test [1] and 20.3 nM on Leukotriene B4 receptor. For `CN(CCc1ccccc1)C(=O)Cc1cc(/C=C/C(=O)O)cc2c(-c3ccccc3)cccc12` the same measures were 1 nM and 50 nM. In the case of `CN(CCc1ccccc1)C(=O)Cc1cc(C(=O)O)c(OCc2ccccc2)c2ccccc12`, the IC50 in test [1] is listed as 6.5 nM; on Leukotriene B4 receptor, 80 nM.

`CN(O)C(=O)c1cc(CC(=O)N(C)CCc2ccccc2)c2cccc(OCc3ccccc3)c2c1`: the pIC50 (commonly the IC50 on a negative log10 scale, so that one unit is a factor of ten) in test [2] is 7.22. `CN(CCc1ccccc1)C(=O)Cc1cc(CCCCC(=O)O)cc2c(OCc3ccccc3)cccc12`: the IC50 was found to be 2.8 nM in test [1] and 100 nM at Leukotriene B4 receptor. For `CN(CCc1ccccc1)C(=O)Cn1cc(/C=C/C=C/C(=O)O)c2c(OCc3ccccc3)cccc21` the same measures were 1.5 nM and 15 nM. `CN(CCc1ccccc1)C(=O)Cn1cc(CC(=O)O)c2cc(OCc3ccccc3)ccc21` yielded an IC50 in test [1] of 30 nM. Regarding `COc1cccc2c(CC(=O)N(C)CCc3ccccc3)cc(C(=O)O)cc12`, the figures for the IC50 (in test [1]; on Leukotriene B4 receptor) were over 30 nM and 700 nM, respectively.

`CN(CCc1ccccc1)C(=O)Cc1cc(C(=O)O)cc2c(Oc3ccccc3)cccc12`: the IC50 in test [1] is 1.5 nM; at Leukotriene B4 receptor, 25 nM. On to `CN(CCc1ccccc1)C(=O)Cn1c(C(=O)O)cc2cc(OCc3ccccc3)ccc21`, for which the IC50 in test [1] is listed as 2.5 nM; at Leukotriene B4 receptor it was 11.2 nM.

Regarding `CN(CCc1ccccc1)C(=O)Cn1cc(/C=C/C(=O)O)c2c(OCc3ccccc3)cccc21`, the IC50 in test [1] turned out to be 1 nM; at Leukotriene B4 receptor, 16.5 nM. With `CC/C(=C\c1cn(CC(=O)N(C)CCc2ccccc2)c2cccc(OCc3ccccc3)c12)C(=O)O`, the IC50 in test [1] came to 1.5 nM; at Leukotriene B4 receptor it was 35 nM. As to `CN(CCc1ccccc1)C(=O)Cn1cc(CCC(=O)O)c2cc(OCc3ccccc3)ccc21`, the IC50 in test [1] is 40 nM. In the case of `CN(CCc1ccccc1)C(=O)Cn1cc(/C=C/C(=O)O)c2cccc(OCc3ccccc3)c21`, the values for the IC50 in test [1] and in test [3] were over 300 nM and “Not Active”, respectively. In the case of `CN(CCc1ccccc1)C(=O)Cc1cc(CCC(=O)O)cc2c(Oc3ccccc3)cccc12`, the IC50 in test [1] is 20 nM; at Leukotriene B4 receptor it was 250 nM. For `CN(CCc1ccccc1)C(=O)Cc1cc(/C=C/C=C/C(=O)O)cc2c(OCc3ccccc3)cccc12`, in that order: 1 nM and 8 nM. In the case of `CN(CCc1ccccc1)C(=O)Cc1cc(C(=O)O)cc2c(-c3ccccc3)cccc12`, the IC50 in test [1] turned out to be 0.45 nM; at Leukotriene B4 receptor it was 8.25 nM. Take `CN(CCc1ccccc1)C(=O)Cc1cc(CCC(=O)O)cc2c(OCc3ccccc3)cccc12`: in test [1], the IC50 was 10 nM. This lies in the double-digit nanomolar range.

`CN(CCc1ccccc1)C(=O)Cn1cc(/C=C/C(=O)O)c2ccc(OCc3ccccc3)cc21`: the IC50 in test [1] is recorded as over 300 nM.

Turning to `CN(CCc1ccccc1)C(=O)Cc1cc(C(=O)O)cc2cc(OCc3ccccc3)ccc12`, the values for the IC50 (in test [1]; on Leukotriene B4 receptor) were 1.07 nM and 7.75 nM, respectively. Regarding `CN(CCc1ccccc1)C(=O)Cn1cc(C(=O)O)c2cc(OCc3ccccc3)ccc21`, the IC50 was 1.5 nM in test [1] and 26.3 nM on Leukotriene B4 receptor. For `CN(CCc1ccccc1)C(=O)Cn1cc(C(C(=O)O)c2ccccc2)c2c(OCc3ccccc3)cccc21` (stereo not drawn), in that order: 2.5 nM and 19 nM. Molecule `CN(CCc1ccccc1)C(=O)Cn1cc(C=O)c2cc(OCc3ccccc3)ccc21` showed a pIC50 in test [2] of under 6.52.

Regarding `Cc1c(C(=O)O)c2cc(OCc3ccccc3)ccc2n1CC(=O)N(C)CCc1ccccc1`, the IC50 is given as 5 nM in test [1] and 90 nM on Leukotriene B4 receptor. For `C/C(=C\c1cn(CC(=O)N(C)CCc2ccccc2)c2ccc(OCc3ccccc3)cc12)C(=O)O` the same measures were 5 nM and 11 nM.

With `CN(CCc1ccccc1)C(=O)Cn1cc(/C=C/C(=O)O)c2cc(OCc3ccccc3)ccc21`, the IC50 in test [1] stood at 4.3 nM; at Leukotriene B4 receptor it was 53 nM. For the molecule `CN(CCc1ccccc1)C(=O)Cn1cc(/C=C/C=C/C(=O)O)c2cc(OCc3ccccc3)ccc21`, the IC50 turned out to be 8 nM in test [1] and 19 nM on Leukotriene B4 receptor. On to `CCCCCOc1cccc2c(CC(=O)N(C)CCc3ccccc3)cc(C(=O)O)cc12`, for which the values for the 50% inhibitory concentration (IC50) (in test [1]; on Leukotriene B4 receptor) were 0.6 nM and 9 nM, respectively. For `CN(CCc1ccccc1)C(=O)Cc1cc(CCC(=O)O)cc2c(-c3ccccc3)cccc12`, in that order: 3.5 nM and 40 nM. For `CN(CCc1ccccc1)C(=O)Cn1cc(C(=O)c2cccc(C(=O)O)c2)c2cc(OCc3ccccc3)ccc21`, in that order: 12 nM and 8.5 nM.
